Source: US10815239B2, “Compounds useful as inhibitors of ATR kinase” (Vertex Pharmaceuticals Incorporated, priority 2013, dated 2020)

Target: T1, full-length ATR (Homo sapiens, UniProt Q13535)
T1 construct: Assays are carried out at 25° C. in the presence of 5 nM full-length ATR
Assay: ATR Inhibition Assay (radioactive-phosphate incorporation)
Type: biochemical
Conditions: 5 nM full-length ATR, 10 μM ATP, 800 μM target peptide, 25° C.; read-out: Ki (Ki(app)) for inhibition of ATR
Procedure: Compounds can be screened for their ability to inhibit ATR kinase using a radioactive-phosphate incorporation assay. Assays are carried out in a mixture of 50 mM Tris/HCl (pH 7.5), 10 mM MgCl2 and 1 mM DTT. Final substrate concentrations are 10 μM [γ-33P]ATP (3 mCi 33P ATP/mmol ATP, Perkin Elmer) and 800 μM target peptide (ASELPASQPQPFSAKKK).
Assays are carried out at 25° C. in the presence of 5 nM full-length ATR. An assay stock buffer solution is prepared containing all of the reagents listed above, with the exception of ATP and the test compound of interest. 13.5 μL of the stock solution is placed in a 96 well plate followed by addition of 2 μL of DMSO stock containing serial dilutions of the test compound (typically starting from a final concentration of 15 μM with 3-fold serial dilutions) in duplicate (final DMSO concentration 7%). The plate is pre-incubated for 10 minutes at 25° C. and the reaction initiated by addition of 15 μL [γ-33P]ATP (final concentration 10 μM).
The reaction is stopped after 24 hours by the addition of 30 μL 0.1M phosphoric acid containing 2 mM ATP. […]
After removing mean background values for all of the data points, Ki(app) data are calculated from non-linear regression analysis of the initial rate data using the Prism software package (GraphPad Prism version 3.0cx for Macintosh, GraphPad Software, San Diego Calif., USA).

T1 sequence (Q13535 whole entry): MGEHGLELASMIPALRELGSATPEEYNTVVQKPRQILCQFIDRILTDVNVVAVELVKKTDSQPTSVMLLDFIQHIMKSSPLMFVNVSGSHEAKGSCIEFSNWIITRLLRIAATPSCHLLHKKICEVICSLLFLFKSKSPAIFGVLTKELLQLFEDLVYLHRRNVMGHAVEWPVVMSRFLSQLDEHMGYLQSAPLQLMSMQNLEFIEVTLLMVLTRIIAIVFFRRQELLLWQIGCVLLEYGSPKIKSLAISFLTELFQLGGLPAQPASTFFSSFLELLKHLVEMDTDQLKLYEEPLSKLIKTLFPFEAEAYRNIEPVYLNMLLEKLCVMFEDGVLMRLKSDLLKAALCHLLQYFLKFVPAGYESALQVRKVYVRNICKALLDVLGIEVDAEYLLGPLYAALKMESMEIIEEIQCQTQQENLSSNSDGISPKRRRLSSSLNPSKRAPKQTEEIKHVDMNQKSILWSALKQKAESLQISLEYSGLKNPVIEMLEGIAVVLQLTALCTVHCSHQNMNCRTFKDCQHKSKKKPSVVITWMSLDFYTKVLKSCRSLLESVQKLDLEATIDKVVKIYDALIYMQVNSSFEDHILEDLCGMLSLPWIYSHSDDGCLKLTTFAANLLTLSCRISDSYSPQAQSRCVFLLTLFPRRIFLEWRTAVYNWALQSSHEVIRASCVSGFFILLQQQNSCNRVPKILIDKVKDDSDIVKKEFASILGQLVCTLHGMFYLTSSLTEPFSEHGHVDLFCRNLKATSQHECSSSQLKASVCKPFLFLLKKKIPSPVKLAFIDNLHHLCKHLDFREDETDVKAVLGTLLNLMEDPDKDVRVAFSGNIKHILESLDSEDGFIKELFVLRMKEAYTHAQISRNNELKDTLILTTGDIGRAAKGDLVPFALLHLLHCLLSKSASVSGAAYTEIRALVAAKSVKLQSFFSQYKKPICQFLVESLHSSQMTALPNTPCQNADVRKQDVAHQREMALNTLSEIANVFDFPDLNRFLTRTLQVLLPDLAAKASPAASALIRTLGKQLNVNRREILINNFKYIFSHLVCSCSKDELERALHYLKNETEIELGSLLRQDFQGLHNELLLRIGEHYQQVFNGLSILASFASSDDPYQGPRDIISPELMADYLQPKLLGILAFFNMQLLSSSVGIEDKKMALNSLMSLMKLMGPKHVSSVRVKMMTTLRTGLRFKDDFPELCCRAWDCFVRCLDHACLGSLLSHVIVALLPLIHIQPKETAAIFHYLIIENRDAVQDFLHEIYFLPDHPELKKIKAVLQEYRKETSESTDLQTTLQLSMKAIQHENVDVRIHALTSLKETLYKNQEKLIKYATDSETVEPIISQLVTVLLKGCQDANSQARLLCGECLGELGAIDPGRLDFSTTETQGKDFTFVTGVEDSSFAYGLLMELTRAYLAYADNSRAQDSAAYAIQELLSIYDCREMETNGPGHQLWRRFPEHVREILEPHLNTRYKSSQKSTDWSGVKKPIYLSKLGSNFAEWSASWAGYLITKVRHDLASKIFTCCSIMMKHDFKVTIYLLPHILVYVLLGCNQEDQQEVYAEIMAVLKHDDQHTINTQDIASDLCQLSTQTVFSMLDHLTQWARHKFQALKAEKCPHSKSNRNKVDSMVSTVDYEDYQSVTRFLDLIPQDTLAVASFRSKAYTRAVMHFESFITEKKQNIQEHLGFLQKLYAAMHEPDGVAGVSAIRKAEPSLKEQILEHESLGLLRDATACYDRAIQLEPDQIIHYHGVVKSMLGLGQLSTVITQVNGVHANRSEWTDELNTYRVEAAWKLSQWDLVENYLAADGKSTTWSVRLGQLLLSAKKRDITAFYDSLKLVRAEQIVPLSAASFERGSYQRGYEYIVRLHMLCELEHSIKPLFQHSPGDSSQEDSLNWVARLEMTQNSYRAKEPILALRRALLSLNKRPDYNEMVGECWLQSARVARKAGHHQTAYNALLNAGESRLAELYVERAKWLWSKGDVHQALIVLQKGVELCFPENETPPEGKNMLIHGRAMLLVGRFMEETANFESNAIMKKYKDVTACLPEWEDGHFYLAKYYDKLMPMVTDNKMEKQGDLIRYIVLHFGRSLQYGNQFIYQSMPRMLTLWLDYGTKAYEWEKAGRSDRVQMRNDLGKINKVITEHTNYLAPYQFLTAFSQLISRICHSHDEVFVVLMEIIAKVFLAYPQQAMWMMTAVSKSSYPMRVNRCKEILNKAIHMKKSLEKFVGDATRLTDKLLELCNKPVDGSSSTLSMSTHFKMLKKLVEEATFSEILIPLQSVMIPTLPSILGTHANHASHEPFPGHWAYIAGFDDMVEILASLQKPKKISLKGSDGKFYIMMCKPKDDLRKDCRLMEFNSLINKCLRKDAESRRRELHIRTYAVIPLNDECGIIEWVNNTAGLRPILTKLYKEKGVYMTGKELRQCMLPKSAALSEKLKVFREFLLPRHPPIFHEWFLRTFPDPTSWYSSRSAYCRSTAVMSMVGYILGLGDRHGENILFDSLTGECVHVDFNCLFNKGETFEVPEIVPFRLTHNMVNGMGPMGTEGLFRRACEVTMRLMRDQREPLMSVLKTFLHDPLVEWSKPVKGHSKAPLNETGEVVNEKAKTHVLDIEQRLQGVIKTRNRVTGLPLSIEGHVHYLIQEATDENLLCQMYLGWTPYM

| Ki | Compound |
| --- | --- |
| < 1 µM | Nc1nn2cc(F)cnc2c1C(=O)Nc1cncc(F)c1N1CCC(C(=O)N2CCN(C3COC3)CC2)CC1 [Compound I-1, 2-amino-6-fluoro-N-[5-fluoro-4-[4-[4-(oxetan-3-yl)piperazine-1-carbonyl]-1-piperidyl]-3-pyridyl]pyrazolo[1,5-a]pyrimidine-3-carboxamide] |
| < 1 µM | [2H]C1([2H])N(C(=O)C2CCN(c3c(F)cncc3NC(=O)c3c(N)nn4cc(F)cnc34)CC2)C([2H])([2H])C([2H])([2H])N(C2COC2)C1([2H])[2H] [Compound I-3, 2-amino-6-fluoro-N-(5-fluoro-4-(4-(2,2,3,3,5,5,6,6-octadeutero-4-(oxetan-3-yl)piperazine-1-carbonyl)piperidin-1-yl)-3-pyridyl)pyrazolo[1,5-a]pyrimidine-3-carboxamide] |
